Reference: ChEMBL document CHEMBL4507297, “Data for DCP probe PF-04457845” (2021)

How the values were obtained:
[1] = molecular target: AP2-associated protein kinase 1 (Homo sapiens) (UniProt Q2M2I8); conditions: Compound concentration 1000.0 nM
[2] = tested on: Tyrosine-protein kinase ABL1 (Homo sapiens), P00519 [T315I]; conditions: Compound concentration 1000.0 nM
[3] = tested on: Tyrosine-protein kinase ABL1 (Homo sapiens), P00519 [T315I]; conditions: Compound concentration 1000.0 nM; remark: listed apart in the source
[4] = molecular target: Calcium/calmodulin-dependent protein kinase type 1 (Homo sapiens) (UniProt Q14012); conditions: Compound concentration 1000.0 nM
[5] = molecular target: Calcium/calmodulin-dependent protein kinase type II subunit alpha (Homo sapiens) (UniProt Q9UQM7); conditions: Compound concentration 1000.0 nM
[6] = molecular target: Cyclin-dependent kinase 13 (Homo sapiens) (UniProt Q14004); conditions: Compound concentration 1000.0 nM
[7] = molecular target: Cyclin-dependent kinase 4 (Homo sapiens) (UniProt P11802); conditions: Compound concentration 1000.0 nM
[8] = molecular target: Casein kinase II subunit alpha' (Homo sapiens) (UniProt P19784); conditions: Compound concentration 1000.0 nM
[9] = molecular target: Death-associated protein kinase 2 (Homo sapiens) (UniProt Q9UIK4); conditions: Compound concentration 1000.0 nM
[10] = molecular target: Epithelial discoidin domain-containing receptor 1 (Homo sapiens) (UniProt Q08345); conditions: Compound concentration 1000.0 nM
[11] = molecular target: Dual specificity tyrosine-phosphorylation-regulated kinase 2 (Homo sapiens) (UniProt Q92630); conditions: Compound concentration 1000.0 nM
[12] = molecular target: Epidermal growth factor receptor (Homo sapiens) (UniProt P00533); conditions: Compound concentration 1000.0 nM
[13] = tested on: Epidermal growth factor receptor (Homo sapiens), P00533 [L861Q]; conditions: Compound concentration 1000.0 nM
[14] = molecular target: Ephrin type-B receptor 2 (Homo sapiens) (UniProt P29323); conditions: Compound concentration 1000.0 nM
[15] = molecular target: Serine/threonine-protein kinase/endoribonuclease IRE1 (Homo sapiens) (UniProt O75460); conditions: Compound concentration 1000.0 nM
[16] = tested on: Receptor-type tyrosine-protein kinase FLT3 (Homo sapiens), P36888 [K663Q]; conditions: Compound concentration 1000.0 nM
[17] = molecular target: Tyrosine-protein kinase HCK (Homo sapiens) (UniProt P08631); conditions: Compound concentration 1000.0 nM
[18] = molecular target: Inhibitor of nuclear factor kappa-B kinase subunit alpha (Homo sapiens) (UniProt O15111); conditions: Compound concentration 1000.0 nM
[19] = molecular target: Tyrosine-protein kinase ITK/TSK (Homo sapiens) (UniProt Q08881); conditions: Compound concentration 1000.0 nM
[20] = molecular target: Serine/threonine-protein kinase 10 (Homo sapiens) (UniProt O94804); conditions: Compound concentration 1000.0 nM
[21] = molecular target: Mitogen-activated protein kinase kinase kinase 1 (Homo sapiens) (UniProt Q13233); conditions: Compound concentration 1000.0 nM
[22] = molecular target: Mitogen-activated protein kinase kinase kinase kinase 3 (Homo sapiens) (UniProt Q8IVH8); conditions: Compound concentration 1000.0 nM
[23] = molecular target: Microtubule-associated serine/threonine-protein kinase 1 (Homo sapiens) (UniProt Q9Y2H9); conditions: Compound concentration 1000.0 nM
[24] = molecular target: Dual specificity mitogen-activated protein kinase kinase 4 (Homo sapiens) (UniProt P45985); conditions: Compound concentration 1000.0 nM
[25] = molecular target: Misshapen-like kinase 1 (Homo sapiens) (UniProt Q8N4C8); conditions: Compound concentration 1000.0 nM
[26] = molecular target: Macrophage-stimulating protein receptor (Homo sapiens) (UniProt Q04912); conditions: Compound concentration 1000.0 nM
[27] = molecular target: Serine/threonine-protein kinase Nek3 (Homo sapiens) (UniProt P51956); conditions: Compound concentration 1000.0 nM
[28] = molecular target: Serine/threonine-protein kinase PAK 2 (Homo sapiens) (UniProt Q13177); conditions: Compound concentration 1000.0 nM
[29] = molecular target: Cyclin-dependent kinase 16 (Homo sapiens) (UniProt Q00536); conditions: Compound concentration 1000.0 nM
[30] = molecular target: 3-phosphoinositide-dependent protein kinase 1 (Homo sapiens) (UniProt O15530); conditions: Compound concentration 1000.0 nM
[31] = molecular target: Phosphorylase b kinase gamma catalytic chain, skeletal muscle/heart isoform (Homo sapiens) (UniProt Q16816); conditions: Compound concentration 1000.0 nM
[32] = molecular target: Phosphatidylinositol 4,5-bisphosphate 3-kinase catalytic subunit delta isoform (Homo sapiens) (UniProt O00329); conditions: Compound concentration 1000.0 nM
[33] = molecular target: 1-phosphatidylinositol 3-phosphate 5-kinase (Homo sapiens) (UniProt Q9Y2I7); conditions: Compound concentration 1000.0 nM
[34] = molecular target: Serine/threonine-protein kinase D1 (Homo sapiens) (UniProt Q15139); conditions: Compound concentration 1000.0 nM
[35] = molecular target: Serine/threonine-protein kinase RIO1 (Homo sapiens) (UniProt Q9BRS2); conditions: Compound concentration 1000.0 nM
[36] = molecular target: Serine/threonine-protein kinase SBK1 (Homo sapiens) (UniProt Q52WX2); conditions: Compound concentration 1000.0 nM
[37] = molecular target: SRSF protein kinase 1 (Homo sapiens) (UniProt Q96SB4); conditions: Compound concentration 1000.0 nM
[38] = molecular target: SRSF protein kinase 3 (Homo sapiens) (UniProt Q9UPE1); conditions: Compound concentration 1000.0 nM
[39] = molecular target: Serine/threonine-protein kinase 16 (Homo sapiens) (UniProt O75716); conditions: Compound concentration 1000.0 nM
[40] = molecular target: Serine/threonine-protein kinase TNNI3K (Homo sapiens) (UniProt Q59H18); conditions: Compound concentration 1000.0 nM
[41] = molecular target: Testis-specific serine/threonine-protein kinase 3 (Homo sapiens) (UniProt Q96PN8); conditions: Compound concentration 1000.0 nM
[42] = molecular target: Serine/threonine-protein kinase ULK1 (Homo sapiens) (UniProt O75385); conditions: Compound concentration 1000.0 nM
[43] = molecular target: Vascular endothelial growth factor receptor 2 (Homo sapiens) (UniProt P35968); conditions: Compound concentration 1000.0 nM
[44] = molecular target: 5-hydroxytryptamine receptor 7 (Homo sapiens) (UniProt P34969); conditions: Compound concentration 10.0 uM
[45] = molecular target: Histamine H2 receptor (Homo sapiens) (UniProt P25021); conditions: Compound concentration 10.0 uM

Tyrosine-protein kinase ITK/TSK (Homo sapiens), sequence (Q08881 whole entry): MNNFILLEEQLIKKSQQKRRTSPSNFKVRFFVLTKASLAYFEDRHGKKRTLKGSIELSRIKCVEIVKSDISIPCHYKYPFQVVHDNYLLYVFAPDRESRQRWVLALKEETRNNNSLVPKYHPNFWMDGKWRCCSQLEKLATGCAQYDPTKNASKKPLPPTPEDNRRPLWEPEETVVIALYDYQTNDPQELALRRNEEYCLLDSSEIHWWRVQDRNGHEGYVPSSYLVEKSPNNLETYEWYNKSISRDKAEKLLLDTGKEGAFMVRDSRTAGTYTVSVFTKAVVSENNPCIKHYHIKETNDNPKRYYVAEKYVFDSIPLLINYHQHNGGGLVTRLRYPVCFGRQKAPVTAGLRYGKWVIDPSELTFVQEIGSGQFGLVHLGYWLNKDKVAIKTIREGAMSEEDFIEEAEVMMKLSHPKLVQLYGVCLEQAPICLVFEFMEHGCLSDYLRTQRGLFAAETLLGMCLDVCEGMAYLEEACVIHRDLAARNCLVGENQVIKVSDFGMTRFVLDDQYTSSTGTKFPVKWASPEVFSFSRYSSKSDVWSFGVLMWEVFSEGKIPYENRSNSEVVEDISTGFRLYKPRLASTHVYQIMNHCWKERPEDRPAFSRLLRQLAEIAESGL
Dual specificity tyrosine-phosphorylation-regulated kinase 2 (Homo sapiens), sequence (Q92630 whole entry): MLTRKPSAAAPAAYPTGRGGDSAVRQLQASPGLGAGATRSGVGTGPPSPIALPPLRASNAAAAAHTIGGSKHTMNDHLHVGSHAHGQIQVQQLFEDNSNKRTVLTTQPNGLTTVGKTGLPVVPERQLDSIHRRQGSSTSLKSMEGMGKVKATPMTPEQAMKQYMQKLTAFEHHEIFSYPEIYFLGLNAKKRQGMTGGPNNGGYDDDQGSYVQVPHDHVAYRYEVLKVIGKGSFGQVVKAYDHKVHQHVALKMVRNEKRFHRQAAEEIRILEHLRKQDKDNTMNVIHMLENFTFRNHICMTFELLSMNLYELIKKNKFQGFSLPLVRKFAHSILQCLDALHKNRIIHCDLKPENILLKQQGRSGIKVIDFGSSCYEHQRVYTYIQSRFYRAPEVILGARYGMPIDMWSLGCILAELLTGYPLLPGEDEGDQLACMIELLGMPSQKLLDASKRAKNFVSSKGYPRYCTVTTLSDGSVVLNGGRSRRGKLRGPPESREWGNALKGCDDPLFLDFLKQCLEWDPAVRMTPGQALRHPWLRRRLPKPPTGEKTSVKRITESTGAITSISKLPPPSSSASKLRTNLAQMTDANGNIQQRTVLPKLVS
Serine/threonine-protein kinase D1 (Homo sapiens), sequence (Q15139 whole entry): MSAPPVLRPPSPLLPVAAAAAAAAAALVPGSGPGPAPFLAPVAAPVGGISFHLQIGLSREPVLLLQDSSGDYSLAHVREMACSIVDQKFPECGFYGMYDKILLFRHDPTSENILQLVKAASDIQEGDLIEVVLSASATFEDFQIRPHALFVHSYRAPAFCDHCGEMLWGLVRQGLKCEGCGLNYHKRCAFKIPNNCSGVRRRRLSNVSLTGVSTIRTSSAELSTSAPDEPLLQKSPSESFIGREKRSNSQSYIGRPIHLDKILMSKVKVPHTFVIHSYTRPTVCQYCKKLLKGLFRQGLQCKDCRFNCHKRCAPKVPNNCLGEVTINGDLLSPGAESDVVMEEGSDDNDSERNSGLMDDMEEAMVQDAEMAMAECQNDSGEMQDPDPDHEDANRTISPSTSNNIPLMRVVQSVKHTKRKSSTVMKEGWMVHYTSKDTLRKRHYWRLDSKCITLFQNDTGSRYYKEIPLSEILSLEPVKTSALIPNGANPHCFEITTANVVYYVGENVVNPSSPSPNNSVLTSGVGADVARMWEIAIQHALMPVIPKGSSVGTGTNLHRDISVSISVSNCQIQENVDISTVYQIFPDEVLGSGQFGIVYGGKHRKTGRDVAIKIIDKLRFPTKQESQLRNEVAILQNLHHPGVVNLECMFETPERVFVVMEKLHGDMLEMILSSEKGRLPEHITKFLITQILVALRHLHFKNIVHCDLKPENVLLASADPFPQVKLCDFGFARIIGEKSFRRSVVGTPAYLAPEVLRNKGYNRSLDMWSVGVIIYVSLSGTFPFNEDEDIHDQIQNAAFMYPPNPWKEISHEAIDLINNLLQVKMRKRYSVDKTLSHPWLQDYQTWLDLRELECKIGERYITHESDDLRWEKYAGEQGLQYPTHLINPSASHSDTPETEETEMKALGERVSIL
SRSF protein kinase 3 (Homo sapiens), sequence (Q9UPE1 whole entry): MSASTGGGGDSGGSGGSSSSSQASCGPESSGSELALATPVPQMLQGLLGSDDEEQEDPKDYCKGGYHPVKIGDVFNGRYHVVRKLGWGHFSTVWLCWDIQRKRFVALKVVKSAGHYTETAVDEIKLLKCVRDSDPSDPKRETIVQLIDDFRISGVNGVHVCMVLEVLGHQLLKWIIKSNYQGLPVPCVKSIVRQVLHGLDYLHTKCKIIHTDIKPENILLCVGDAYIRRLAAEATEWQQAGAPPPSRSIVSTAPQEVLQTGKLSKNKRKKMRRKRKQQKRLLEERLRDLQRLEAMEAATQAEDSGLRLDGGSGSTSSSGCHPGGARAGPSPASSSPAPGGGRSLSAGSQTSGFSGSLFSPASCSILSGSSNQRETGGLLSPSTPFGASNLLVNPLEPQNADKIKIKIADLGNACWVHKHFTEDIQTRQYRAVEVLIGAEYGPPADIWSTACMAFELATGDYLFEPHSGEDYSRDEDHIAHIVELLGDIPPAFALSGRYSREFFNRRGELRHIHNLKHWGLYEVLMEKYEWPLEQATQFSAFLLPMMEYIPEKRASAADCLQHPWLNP
Serine/threonine-protein kinase Nek3 (Homo sapiens), sequence (P51956 whole entry): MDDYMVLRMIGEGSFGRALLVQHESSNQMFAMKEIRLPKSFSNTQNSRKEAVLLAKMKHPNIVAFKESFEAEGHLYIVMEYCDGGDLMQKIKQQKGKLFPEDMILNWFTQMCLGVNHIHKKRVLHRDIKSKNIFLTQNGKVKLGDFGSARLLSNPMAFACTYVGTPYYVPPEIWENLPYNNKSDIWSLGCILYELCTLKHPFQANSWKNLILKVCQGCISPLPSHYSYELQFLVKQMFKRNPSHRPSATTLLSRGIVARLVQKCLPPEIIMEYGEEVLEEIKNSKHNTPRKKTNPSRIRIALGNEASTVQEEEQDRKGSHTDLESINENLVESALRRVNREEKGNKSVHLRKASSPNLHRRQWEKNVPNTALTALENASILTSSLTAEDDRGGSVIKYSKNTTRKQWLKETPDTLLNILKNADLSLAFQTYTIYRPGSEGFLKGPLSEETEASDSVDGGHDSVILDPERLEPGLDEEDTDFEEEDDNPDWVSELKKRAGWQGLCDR
Dual specificity mitogen-activated protein kinase kinase 4 (Homo sapiens), sequence (P45985 whole entry): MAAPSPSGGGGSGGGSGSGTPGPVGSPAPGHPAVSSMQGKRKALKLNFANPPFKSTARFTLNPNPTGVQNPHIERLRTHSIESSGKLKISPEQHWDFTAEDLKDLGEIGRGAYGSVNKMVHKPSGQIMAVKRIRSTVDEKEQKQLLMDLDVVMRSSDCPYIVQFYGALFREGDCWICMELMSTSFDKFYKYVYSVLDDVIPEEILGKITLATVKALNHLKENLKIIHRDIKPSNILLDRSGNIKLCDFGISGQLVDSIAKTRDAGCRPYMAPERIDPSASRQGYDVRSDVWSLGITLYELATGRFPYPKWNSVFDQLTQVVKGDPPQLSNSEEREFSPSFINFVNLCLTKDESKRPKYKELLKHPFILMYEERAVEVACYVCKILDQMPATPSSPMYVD
Cyclin-dependent kinase 4 (Homo sapiens), sequence (P11802 whole entry): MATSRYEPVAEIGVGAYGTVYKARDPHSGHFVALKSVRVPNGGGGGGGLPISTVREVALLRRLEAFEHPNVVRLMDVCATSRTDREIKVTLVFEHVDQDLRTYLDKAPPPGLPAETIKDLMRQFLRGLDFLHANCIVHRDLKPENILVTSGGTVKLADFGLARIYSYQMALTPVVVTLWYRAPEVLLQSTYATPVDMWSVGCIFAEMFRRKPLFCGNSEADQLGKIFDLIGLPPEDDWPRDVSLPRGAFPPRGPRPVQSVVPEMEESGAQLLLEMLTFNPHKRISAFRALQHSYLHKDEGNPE
Phosphatidylinositol 4,5-bisphosphate 3-kinase catalytic subunit delta isoform (Homo sapiens), sequence (O00329 whole entry, canonical isoform): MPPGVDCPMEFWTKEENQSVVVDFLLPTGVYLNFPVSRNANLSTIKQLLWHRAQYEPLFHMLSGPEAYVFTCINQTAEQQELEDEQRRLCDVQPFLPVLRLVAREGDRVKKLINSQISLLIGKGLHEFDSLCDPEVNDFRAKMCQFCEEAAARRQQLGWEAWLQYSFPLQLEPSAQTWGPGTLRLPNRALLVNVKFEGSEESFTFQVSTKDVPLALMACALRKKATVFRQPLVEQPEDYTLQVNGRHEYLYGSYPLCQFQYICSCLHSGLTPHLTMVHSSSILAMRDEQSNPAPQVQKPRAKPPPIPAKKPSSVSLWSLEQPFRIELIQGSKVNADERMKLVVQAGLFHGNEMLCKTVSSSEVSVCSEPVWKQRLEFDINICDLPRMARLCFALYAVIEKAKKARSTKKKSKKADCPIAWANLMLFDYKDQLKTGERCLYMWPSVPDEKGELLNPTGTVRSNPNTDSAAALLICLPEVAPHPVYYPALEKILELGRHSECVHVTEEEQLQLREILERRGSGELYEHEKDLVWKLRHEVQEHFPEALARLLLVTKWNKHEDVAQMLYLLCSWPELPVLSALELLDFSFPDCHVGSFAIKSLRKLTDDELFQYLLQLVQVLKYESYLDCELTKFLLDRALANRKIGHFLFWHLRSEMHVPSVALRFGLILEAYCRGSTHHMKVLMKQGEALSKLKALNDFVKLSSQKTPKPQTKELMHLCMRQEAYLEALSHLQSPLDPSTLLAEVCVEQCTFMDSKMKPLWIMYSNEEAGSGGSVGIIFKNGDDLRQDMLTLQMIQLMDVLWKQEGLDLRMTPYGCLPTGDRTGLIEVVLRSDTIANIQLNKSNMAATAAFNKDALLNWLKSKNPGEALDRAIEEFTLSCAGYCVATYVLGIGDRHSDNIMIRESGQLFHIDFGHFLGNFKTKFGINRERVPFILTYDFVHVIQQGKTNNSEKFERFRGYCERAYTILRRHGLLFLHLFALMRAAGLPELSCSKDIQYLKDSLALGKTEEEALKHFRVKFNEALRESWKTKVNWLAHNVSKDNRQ

O=C(Nc1cccnn1)N1CCC(=Cc2cccc(Oc3ccc(C(F)(F)F)cn3)c2)CC1
inactive: residual activity [1] 74% | residual activity [2] 100% | residual activity [3] 76% | residual activity [4] 100% | residual activity [5] 72% | residual activity [6] 100% | residual activity [7] 96% | residual activity [8] 100% | residual activity [9] 69% | residual activity [10] 79% | residual activity [11] 81% | residual activity [12] 100% | residual activity [13] 84% | residual activity [14] 100% | residual activity [15] 92% | residual activity [16] 100% | residual activity [17] 98% | residual activity [18] 93% | residual activity [19] 100% | residual activity [20] 74% | residual activity [21] 100% | residual activity [22] 100% | residual activity [23] 100% | residual activity [24] 100% | residual activity [25] 100% | residual activity [26] 92% | residual activity [27] 100% | residual activity [28] 83% | residual activity [29] 100% | residual activity [30] 85% | residual activity [31] 100% | residual activity [32] 81% | residual activity [33] 100% | residual activity [34] 100% | residual activity [35] 100% | residual activity [36] 100% | residual activity [37] 97% | residual activity [38] 81% | residual activity [39] 90% | residual activity [40] 100% | residual activity [41] 100% | residual activity [42] 84% | residual activity [43] 88% | inhibition [44] 37.5% | inhibition [45] 17.3%

O=C(Nc1cccnn1)N1CC(C/C=C/c2cncc(Oc3ccc(C(F)(F)F)cn3)n2)C1
inactive: residual activity [1] 100% | residual activity [2] 60% | residual activity [3] 80% | residual activity [4] 100% | residual activity [5] 100% | residual activity [6] 98% | residual activity [7] 94% | residual activity [8] 100% | residual activity [9] 100% | residual activity [10] 99% | residual activity [11] 81% | residual activity [12] 99% | residual activity [13] 100% | residual activity [14] 100% | residual activity [15] 67% | residual activity [16] 100% | residual activity [17] 100% | residual activity [18] 69% | residual activity [19] 100% | residual activity [20] 94% | residual activity [21] 66% | residual activity [22] 100% | residual activity [23] 58% | residual activity [24] 74% | residual activity [25] 100% | residual activity [26] 100% | residual activity [27] 100% | residual activity [28] 95% | residual activity [29] 81% | residual activity [30] 97% | residual activity [31] 100% | residual activity [32] 64% | residual activity [33] 100% | residual activity [34] 100% | residual activity [35] 100% | residual activity [36] 89% | residual activity [37] 82% | residual activity [38] 100% | residual activity [39] 98% | residual activity [40] 100% | residual activity [41] 98% | residual activity [42] 79% | residual activity [43] 64% | inhibition [44] 1.18% | inhibition [45] -3.96%
